Data reported in paper PMC8952364, “Polyphenols as Inhibitors of Antibiotic Resistant Bacteria—Mechanisms Underlying Rutin Interference with Bacterial Virulence” (Pharmaceuticals, 2022).
Values after ≈ are worked out from the molar mass of the structure shown.

How the values were obtained:
K. pneumoniae Ni9 = experiment: Antimicrobial microdilution assay (MIC/MBC); type: cell-based, Klebsiella pneumoniae; conditions: Klebsiella pneumoniae, NI9
Procedure, shortened: (§1)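 Broth microdilution with 0.5 McFarland suspension diluted twenty-fold and mixed 1:10 with compound (0.0039–1 mg/mL, from 30% ethanol stocks); 24 h at 37 °C. Triplicate runs.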

K. pneumoniae IT977 = experiment: Antimicrobial microdilution assay (MIC/MBC); type: cell-based, Klebsiella pneumoniae; conditions: Klebsiella pneumoniae, IT977
Procedure, shortened: as §1

[1] = test system: 24 h old P. aeruginosa IBRS P001 biofilms; experiment: Biofilm eradication, eDNA assay; type: cell-based, Pseudomonas aeruginosa; conditions: MBC–4 MBC, Figure 5D
Experimental: (§2) The quantity of eDNA was determined as previously described, with some modifications. […] Subsequently, the planktonic cells were removed, and the wells were washed with PBS. TE buffer (Tris-EDTA buffer solution) was added to the wells and content was mixed vigorously by pipetting. The samples were transferred to 1.5 mL tubes and centrifuged at 10,000× g for 10 min. After removal of the supernatant, the pellet was suspended in a TE buffer by vortexing. Absorbance of the supernatant (260 nm) was measured after centrifugation at 10,000× g for 15 min. We calculated the inhibition percentage of eDNA relative to an untreated control. The solvent treated sample was used as the control.
(§3) The bacterial cells were incubated in TSB enriched with 2% glucose in 96-well plates (Sarstedt, Germany) with adhesive bottom at 37 °C for 24 h. After incubation, wells were washed with PBS, and rutin (MBC–4 MBC) in TSB with 2% glucose was added. Incubation continued at 37 °C for another 24 h. The planktonic cells were removed.
(§4) The assays continued as described above for the crystal violet antibiofilm assay for the measurement of biofilm mass, biofilm MTT assay for the interference with cell viability, Congo red binding assay for estimation of exopolysaccharide production, and eDNA assay.

MRSA IBRS MRSA 011 = experiment: Membrane permeability assay (nucleotide and protein leakage); type: cell-based, Staphylococcus aureus; conditions: rutin MIC; more significant increase in absorbance at 260 and 280 nm after 90 min
Experimental: The effect of rutin on membrane permeability (nucleotide and protein leakage) was evaluated as described earlier with some modifications. The culture of P. aeruginosa IBRS P001 and MRSA IBRS MRSA 011 was incubated overnight at 37 °C, washed, and suspended in 10 mM PBS in order to achieve the final density of 10^8 CFU/mL. Bacteria were incubated with rutin at a concentration equal to MIC for time intervals 0, 30, 60, and 90 min. Bacteria incubated with PBS were used as control. After incubation the mixture was filtered through a 0.22 μm pore size filter to remove […]. The optical density of the filtrate was measured at 260 and 280 nm with an Agilent/HP 8453 UV-Visible Spectrophotometer (Agilent Technologies, Santa Clara, CA, USA) at room temperature (25 °C).

[2] = test system: P. aeruginosa IBRS P001 elastase production; experiment: Elastase assay (Elastin-Congo red); type: cell-based, Pseudomonas aeruginosa; conditions: 0.25 mg/mL (0.5 MIC), compared to the control
Experimental: After 48 h of incubation (37 °C, 180 rpm), the mixtures were collected and centrifuged at 15,700× g for 15 min. Quantification of the elastase activity was measured at 495 nm using a Plate Reader Infinite 200 pro (MTX Lab Systems, Vienna, VA, USA). An untreated culture supernatant was used as a positive control (supplemented with the solvent). The experiment was done in triplicate.

P. aeruginosa IBRS P001 = experiment: Bacterial adhesion to HaCaT cells; type: cell-based, Pseudomonas aeruginosa
Experimental: HaCaT cells were grown until confluence in 24-well plates with an adhesive bottom. The medium was removed and DMEM without FBS containing the rutin (MIC and 0.5 MIC) was added. The samples were incubated at 37 °C for 15 min, and bacteria (P. aeruginosa IBRS P001 and MRSA IBRS MRSA 011) were added. After incubation at 37 °C for 1 h, the cells were washed three times with DMEM without FBS and lyzed with 1 mL of 1% (v/v) Tween-20 (SigmaAldrich, Germany) at 37 °C for 30 min. Afterwards, dilutions of the bacterial suspension in each well were made and seeded on Plate Count Agar plates. The number of CFU was determined after incubation at 37 °C for 18 h, and the percentage of adhered bacterial cells was calculated following the equation:% (adhesion relative to the control) = 100 × CFU (treated)/CFU (control)
With CFU (treated) representing the number of CFUs after the treatment of cells with rutin and CFU (control) representing the number of bacterial CFUs in the untreated sample. The solvent treated sample was used as the control.

[3] = test system: P. aeruginosa IBRS P001 biofilm; experiment: Quantification of eDNA (biofilm formation); type: cell-based; conditions: Pseudomonas aeruginosa, IBRSP001BIOFILM; 0.25 MIC, 0.125 mg/mL; read-out: inhibition of eDNA levels
Experimental: as §2

[4] = test system: 24 h old P. aeruginosa IBRS P001 biofilms; experiment: Biofilm eradication, crystal violet assay (biofilm mass); type: cell-based, Pseudomonas aeruginosa; conditions: 4 MBC—4 mg/mL, 24 h treatment
Experimental: After incubation, each well was washed twice with sterile PBS (phosphate-buffered saline, pH 7.4) and fixed with methanol for 10 min. After removal of methanol the plate was air-dried. The biofilm was stained with 0.1% crystal violet (Bio-Merieux, Marcy l’Etoile, France) for 30 min. The plate was washed with water, air dried, and the stain was dissolved with 200 μL of 96% ethanol (Zorka, Sabac, Serbia). The absorbance was read at 620 nm on a Multiskan™ FC microplate photometer (Thermo Scientific™, Waltham, MA, USA). The results are presented as biofilm forming capacity (%) compared to control.
as §3, §4

[5] = subcultivation, 24 h at 37 °C, read-out: MBC

Compound: C[C@@H]1O[C@@H](OC[C@H]2O[C@@H](Oc3c(-c4ccc(O)c(O)c4)oc4cc(O)cc(O)c4c3=O)[C@H](O)[C@@H](O)[C@@H]2O)[C@H](O)[C@H](O)[C@H]1O [Rutin, rutin]
- MIC (K. pneumoniae Ni9; 37 °C, 24 h, read-out: MIC): 1000 µg/mL (≈ 1640 µM)
- MBC (K. pneumoniae Ni9; [5]): 1000 µg/mL (≈ 1640 µM)
- MIC (K. pneumoniae IT977; 37 °C, 24 h, read-out: MIC): 1000 µg/mL (≈ 1640 µM)
- MBC (K. pneumoniae IT977; [5]): 1000 µg/mL (≈ 1640 µM)
- levels of eDNA in the biofilm matrix, in words [1]: significantly reduced
- cell membrane integrity, in words (MRSA IBRS MRSA 011): disrupted
- reduction of elastase production [2]: 91%
- reduction of CFU adhered to human keratinocytes (P. aeruginosa IBRS P001; 0.5 MIC, 0.25 mg/mL): 25%
- reduction of CFU adhered to human keratinocytes (P. aeruginosa IBRS P001; rutin MIC): 51%
- inhibition at 125 µg/mL [3]: > 50%
- inhibition of pre-formed biofilm biomass [4]: 35%
